{"source": "patent US11364231B2", "about": "“Methods of treating radiation induced gastrointestinal syndrome (RIGS) and related disease states using YEL002/BCN057” (priority 2017, dated 2022)", "key": {"[1]": {"test_system": "C57B16 mice exposed to PBI (BM40)", "assay": "Survival after partial body irradiation (PBI, BM40)", "format": "in vivo", "conditions": "14.5 Gy PBI (BM40), BCN057 at 24 hrs post PBI; untreated dead within 12 days", "from_the_text": "FIG. 1C. Kaplan Meier survival analysis of C57B16 mice (n=25/group) exposed to PBI (BM40). Head & Neck and upper extremities were shielded to spare 40% of bone marrow.\nUnless there has been a very focal radiation exposure there will also be involvement of many other organ systems, and their differential responses to various doses of irradiation will impact the gastrointestinal acute radiation syndrome (GI-ARS) dose response. All radiation doses inducing GI-ARS will have a major impact on the bone marrow, which in turn will affect the levels of intestinal inflammation and ability of the body to manage the infection resulting from bacterial translocation through an impaired intestinal mucosal barrier. To investigate involvement of bone marrow in survival outcome upon BCN057 treatment, C57B16 mice were exposed to partial body irradiation (PBI) where 40% of total bone marrow was […] to irradiation after shielding head and fore limbs. Treatment with BCN057 at 24 hrs post exposure of 14.5 Gy PBI rescued 70% of mice from radiation lethality (p<0.0001). However, all the untreated mice were dead within 12 days post-exposure (FIG. 1C)."}, "[2]": {"test_system": "nuclear β-catenin in crypt epithelial cells", "assay": "β-Catenin immunohistochemistry of mouse jejunum", "format": "in vivo, mice", "conditions": "BCN057 at 24 hrs post AIR vs irradiated untreated animals", "description": "The effect of BCN057 was analyzed in crypt epithelial β-catenin activation. […] Nuclear β-catenin positive cells were primarily observed in crypt bottom which is also location for ISCs indicating activation of WNT-β-catenin signaling in ISCs.\nβ-Catenin immunohistochemistry was performed in paraffin-embedded sections of mouse jejunum (56). Before immunostaining antigen retrieval was performed by heating slides in […] at 100° C. for 20 min in a microwave oven at 500 W using antigen retrieval solution (10 mM Tris and 1 mM EDTA, pH 9.0). Non-specific antibody binding was blocked for 20 min. by incubation with 0.05% w/v BSA in PBS. Tissue was stained using the anti-β-catenin antibody (1:100 dilution; BD Transduction Laboratories, Franklin Lakes, N.J.; #610154) at room temperature for 2 hr followed by staining with horseradish peroxidase-conjugated Anti-Mouse Antibody (Dako, Denmark) at room temperature for 1 hr. Peroxidase activity was detected by adding DAB substrate. Nucleus was counter-stained with haematoxylin (blue). β-Catenin-positive nucleus (stained dark brown) was calculated from 15 crypts per field, 5 fields per mice."}, "[3]": {"test_system": "intestinal crypt organoids from Lgr5/EGFP-IRES-Cre-ERT2 knock in mice", "assay": "Ex vivo irradiated mouse intestinal crypt organoids", "format": "cell-based", "from_the_text": "To analyze the effect of BCN057 on ISC population, an ex vivo primary intestinal culture system exposed to graded doses of irradiation was developed. Intestinal crypt isolated from Lgr5/EGFP-IRES-Cre-ERT2 knock in mice to allow the visualization of the ISCs. At a dose level of 8 Gy most of the Lgr5+ve ISCs had disappeared within 48 hrs resulting significant loss of budding crypt with changes in existing crypt morphology indicating inhibition of ISC growth and differentiation in response to radiation exposure. […] A representative microscopic image of effect of BCN057 on budding crypt having Lgr5+ve ISCs (GFP+ve cells indicated with arrow) is shown in FIG. 10.\nSmall intestine from Lgr5-GFP mice, or their littermates control mice was used for crypt isolation and development of ex vivo organoid culture. The tissue was scraped for removing villi and chopped into˜5 mm pieces. Then tissue was washed with cold PBS, and incubated in dissociation buffer for 20 mins in rotor at room temperature. The tissue fragments were suspended vigorously with a 10-ml pipette in cold 0.1% BSA in PBS, yielding supernatants enriched in epithelial cells. […] The number of organoids per well was counted on microscopic images. […] Total number of crypt structures and number of budding crypts were counted and expressed as a ratio of budding crypts/total crypt structure."}, "[4]": {"test_system": "Lgr5+ve ISC in Lgr5/GFP-IRES-Cre-ERT2 knock-in mice", "assay": "Lgr5+ve ISC survival in vivo after AIR", "conditions": "15 Gy AIR then BCN057; beyond 48 hrs post AIR, p<0.001", "from_the_text": "To study this effect in vivo, the role of BCN057 in ISC survival was examined by exposing Lgr5/GFP-IRES-Cre-ERT2 knock-in mice to 15 Gy to AIR and then treated with BCN057. Lgr5+ve ISC had disappeared from crypt base within 48 hrs post AIR in untreated mice."}, "[5]": {"test_system": "human colonic organoid developed from non-malignant tissue", "assay": "Irradiated human colonic organoids from non-malignant tissue", "format": "cell-based", "description": "FIG. 13. […] Note presence of budding crypt like structure in BCN057 treated group.\nTo examine the effect of BCN057 on human intestinal, epithelial tissue surgical specimen collected from normal colon at least 10 cm apart from malignant site was used to develop ex vivo crypt organoid. At a dose level of 8 Gy all the budding crypts have been disappeared in the organoids. […] The effect of BCN057 on mRNA level of β-catenin target genes in organoids was also evaluated."}, "NCI 60 cancer cell lines": {"test_system": "NCI 60 cancer cell lines", "assay": "NCI 60 cancer cell line screen", "format": "cell-based", "conditions": "BCN057 10 uM, 48 hours, sulforhodamine B assay", "description": "BCN057 was first examined in the National Cancer Institute (NCI) 60 cancer cell line platform. Several of these cell lines are known to be positive for dysregulation of the Wnt/b-catenin signaling pathway. […] Next we examined the effect of BCN057 in human colonic tumor derived organoids exposed to irradiation.\n100 μL of each cell preparation was tested in accordance with its particular type and density, ranging from 5000-40,000 cells per well in a 96-well microtiter plate, corresponding to their own growth rate. BCN057 was evaluated 10 uM and incubation for 48 hours in a 5% CO2 atmosphere with 100% humidity. Proliferation was assayed using the sulforhodamine B assay with a plate reader to read the optical densities."}}, "note": "“Also recorded” adds a separate entry of the source."}
{"smiles": "COc1ccc2cc(-c3nc4ccc(C)cn4c3NCc3ccco3)c(=O)[nH]c2c1", "note": "[BCN057, 3-(3((furan-2-ylmethyl)ammo)-6-methylimidazo[1,2-a]pyridine-2-yl)-6-methoxyquinolin-2(1H)-one]", "values": [{"measurement": "survival", "setting": "[1]", "value": 70, "unit": "%"}, {"measurement": "nuclear β-catenin positive cells", "setting": "[2]", "value": "significant increase; also recorded: more nuclear β-catenin staining"}, {"measurement": "organoid growth / ratio of budding crypt to total crypt", "setting": "[3]; 8 Gy, BCN057 10 uM at 1 hr after irradiation", "value": "restored the number of budding crypts to un-irradiated levels; also recorded: improved the organoid growth"}, {"measurement": "Lgr5+ve ISCs in organoids", "setting": "[3]; 8Gy, BCN057 treated vs irradiated control", "value": "recused Lgr5+ve ISCs; also recorded: increases the presence of Lgr5+ve cells"}, {"measurement": "Lgr5+ve ISC in jejunal crypts", "setting": "[4]", "value": "significant preservation; also recorded: presence of GFP+ve Lgr5+ve ISCs"}, {"measurement": "budding crypts / organoid structure", "setting": "[5]; 8Gy, BCN057 (20 ug/ml) at 1 hr post irradiation, 72 hrs", "value": "complete restitution of organoid structure; also recorded: rescued the organoids from radiation toxicity"}, {"measurement": "Ki67 staining in budding crypt like structure", "setting": "[5]; 8Gy, BCN057 treated organoids", "value": "positive staining"}, {"measurement": "ratio of budding crypt to total number of crypts", "setting": "[5]; irradiated organoids 4Gy and 8Gy, vs untreated irradiated control", "value": "increased"}, {"measurement": "proliferative response", "setting": "NCI 60 cancer cell lines", "value": "None of these cells showed any proliferative response"}]}
